Measurements taken from paper PMC8070189, “Native Structure-Based Peptides as Potential Protein–Protein Interaction Inhibitors of SARS-CoV-2 Spike Protein and Human ACE2 Receptor” (Molecules, 2021).

Target: RBD domain of SARS-CoV-2 protein (Severe acute respiratory syndrome coronavirus 2, UniProt P0DTC2)
Format: binding

MYEEFKAED
binding affinity to RBD of S protein, in words: extremely weak binder
